# Values quoted from earlier work in publication PMC3433420 (PLoS ONE, 2012).
# Like-named read-outs stand apart in the source and are kept apart here.
# Target: SH2 and PTB domains
# Conditions: cited from earlier work
# Description: Supplement pone.0044471.s022.xlsx, sheet "Most recent PM interactions" | column: Kd || Supplement pone.0044471.s022.xlsx, sheet "All original PM interactions" | column: Kd
substance,measurement,setting,value
MDDVVDADEpYLIPQQGFd [ErbB1 1016],Kd,"Protein ABL2, most recent PM interactions, ref Jones et al. 2006 / Kaushansky et al. Mol Biosys 2008 / Kaushansky et al. Chem and Biol 2008",280 nM
same,Kd,"Protein BLK, most recent PM interactions, ref Jones et al. 2006 / Kaushansky et al. Mol Biosys 2008 / Kaushansky et al. Chem and Biol 2008",660 nM
same,Kd,"Protein CRK, most recent PM interactions, ref Jones et al. 2006 / Kaushansky et al. Mol Biosys 2008 / Kaushansky et al. Chem and Biol 2008",470 nM
same,Kd,"Protein CRKL, most recent PM interactions, ref Jones et al. 2006 / Kaushansky et al. Mol Biosys 2008 / Kaushansky et al. Chem and Biol 2008",1000 nM
same,Kd,"Protein NCK1, most recent PM interactions, ref Jones et al. 2006 / Kaushansky et al. Mol Biosys 2008 / Kaushansky et al. Chem and Biol 2008",1000 nM
same,Kd,"Protein PIK3R1-C, most recent PM interactions, ref Jones et al. 2006 / Kaushansky et al. Mol Biosys 2008 / Kaushansky et al. Chem and Biol 2008",870 nM
same,Kd,"Protein PIK3R1-N, most recent PM interactions, ref Jones et al. 2006 / Kaushansky et al. Mol Biosys 2008 / Kaushansky et al. Chem and Biol 2008",900 nM
same,Kd,"Protein PIK3R1-NC, most recent PM interactions, ref Jones et al. 2006 / Kaushansky et al. Mol Biosys 2008 / Kaushansky et al. Chem and Biol 2008",180 nM
same,Kd,"Protein PIK3R2-N, most recent PM interactions, ref Jones et al. 2006 / Kaushansky et al. Mol Biosys 2008 / Kaushansky et al. Chem and Biol 2008",420 nM
same,Kd,"Protein PIK3R2-NC, most recent PM interactions, ref Jones et al. 2006 / Kaushansky et al. Mol Biosys 2008 / Kaushansky et al. Chem and Biol 2008",350 nM
same,Kd,"Protein PIK3R3-C, most recent PM interactions, ref Jones et al. 2006 / Kaushansky et al. Mol Biosys 2008 / Kaushansky et al. Chem and Biol 2008",190 nM
same,Kd,"Protein PIK3R3-N, most recent PM interactions, ref Jones et al. 2006 / Kaushansky et al. Mol Biosys 2008 / Kaushansky et al. Chem and Biol 2008",720 nM
same,Kd,"Protein PIK3R3-NC, most recent PM interactions, ref Jones et al. 2006 / Kaushansky et al. Mol Biosys 2008 / Kaushansky et al. Chem and Biol 2008",200 nM
same,Kd,"Protein PLCG1-NC, most recent PM interactions, ref Jones et al. 2006 / Kaushansky et al. Mol Biosys 2008 / Kaushansky et al. Chem and Biol 2008",790 nM
same,Kd,"Protein PTPN11-N, most recent PM interactions, ref Jones et al. 2006 / Kaushansky et al. Mol Biosys 2008 / Kaushansky et al. Chem and Biol 2008",380 nM
same,Kd,"Protein RASA1-N, most recent PM interactions, ref Jones et al. 2006 / Kaushansky et al. Mol Biosys 2008 / Kaushansky et al. Chem and Biol 2008",490 nM
same,Kd,"Protein RASA1-NC, most recent PM interactions, ref Jones et al. 2006 / Kaushansky et al. Mol Biosys 2008 / Kaushansky et al. Chem and Biol 2008",1420 nM
same,Kd,"Protein SHB, most recent PM interactions, ref Jones et al. 2006 / Kaushansky et al. Mol Biosys 2008 / Kaushansky et al. Chem and Biol 2008",1990 nM
same,Kd,"Protein SHC1-PTB, most recent PM interactions, ref Jones et al. 2006 / Kaushansky et al. Mol Biosys 2008 / Kaushansky et al. Chem and Biol 2008",630 nM
same,Kd,"Protein SHC2-PTB, most recent PM interactions, ref Jones et al. 2006 / Kaushansky et al. Mol Biosys 2008 / Kaushansky et al. Chem and Biol 2008",660 nM
same,Kd,"Protein SHC3, most recent PM interactions, ref Jones et al. 2006 / Kaushansky et al. Mol Biosys 2008 / Kaushansky et al. Chem and Biol 2008",220 nM
same,Kd,"Protein SYK-C, most recent PM interactions, ref Jones et al. 2006 / Kaushansky et al. Mol Biosys 2008 / Kaushansky et al. Chem and Biol 2008",930 nM
same,Kd,"Protein SYK-NC, most recent PM interactions, ref Jones et al. 2006 / Kaushansky et al. Mol Biosys 2008 / Kaushansky et al. Chem and Biol 2008",610 nM
same,Kd,"Protein TNS4, most recent PM interactions, ref Jones et al. 2006 / Kaushansky et al. Mol Biosys 2008 / Kaushansky et al. Chem and Biol 2008",920 nM
same,Kd,"Protein VAV1, most recent PM interactions, ref Jones et al. 2006 / Kaushansky et al. Mol Biosys 2008 / Kaushansky et al. Chem and Biol 2008",1050 nM
same,Kd,"Protein VAV2, most recent PM interactions, ref Jones et al. 2006 / Kaushansky et al. Mol Biosys 2008 / Kaushansky et al. Chem and Biol 2008",85 nM
"KQLLpYSEAKTPId [ErbB3 pY868, N-terminally rhodamine-labeled 13-mer phosphopeptide]",Kd,"Protein ABL2, original PM interactions, ref Jones et al. 2006 / Kaushansky et al. Chem and Biol 2008",70 nM
same,Kd,"Protein BCAR3, original PM interactions, ref Jones et al. 2006 / Kaushansky et al. Chem and Biol 2008",1780 nM
same,Kd,"Protein CRKL, original PM interactions, ref Jones et al. 2006 / Kaushansky et al. Chem and Biol 2008",1760 nM
same,Kd,"Protein NCK2, original PM interactions, ref Jones et al. 2006 / Kaushansky et al. Chem and Biol 2008",2000 nM
same,Kd,"Protein PIK3R3-NC, original PM interactions, ref Jones et al. 2006 / Kaushansky et al. Chem and Biol 2008",2000 nM
same,Kd,"Protein RASA1-N, original PM interactions, ref Jones et al. 2006 / Kaushansky et al. Chem and Biol 2008",950 nM
same,Kd,"Protein SHC1-PTB, original PM interactions, ref Jones et al. 2006 / Kaushansky et al. Chem and Biol 2008",2000 nM
same,Kd,"Protein SYK-NC, original PM interactions, ref Jones et al. 2006 / Kaushansky et al. Chem and Biol 2008",920 nM
"DNPDpYWHSRLFPd [ErbB3 pY1328, N-terminally rhodamine-labeled 13-mer phosphopeptide]",Kd,"protein ABL2, ref Jones et al. 2006 / Kaushansky et al. Chem and Biol 2008",600 nM
same,Kd,"protein HSH2D, ref Jones et al. 2006 / Kaushansky et al. Chem and Biol 2008",1700 nM
same,Kd,"protein MATK, ref Jones et al. 2006 / Kaushansky et al. Chem and Biol 2008",1870 nM
same,Kd,"protein NCK2, ref Jones et al. 2006 / Kaushansky et al. Chem and Biol 2008",1900 nM
same,Kd,"protein RASA1-NC, ref Jones et al. 2006 / Kaushansky et al. Chem and Biol 2008",1920 nM
same,Kd,"protein SHC1-PTB, ref Jones et al. 2006 / Kaushansky et al. Chem and Biol 2008",220 nM
same,Kd,"protein SYK-NC, ref Jones et al. 2006 / Kaushansky et al. Chem and Biol 2008",1980 nM
same,Kd,"protein TENC1, ref Jones et al. 2006 / Kaushansky et al. Chem and Biol 2008",1250 nM
same,Kd,"protein TNS4, ref Jones et al. 2006 / Kaushansky et al. Chem and Biol 2008",850 nM
"PPPApYTPMSGNQd [ErbB4 pY1056, N-terminally rhodamine-labeled 13-mer phosphopeptide]",Kd,"protein ABL2, ref Kaushansky et al. Chem and Biol 2008",660 nM
same,Kd,"protein PIK3R1-N, ref Kaushansky et al. Chem and Biol 2008",540 nM
same,Kd,"protein PIK3R1-NC, ref Kaushansky et al. Chem and Biol 2008",1440 nM
same,Kd,"protein PIK3R2-N, ref Kaushansky et al. Chem and Biol 2008",200 nM
same,Kd,"protein PIK3R2-NC, ref Kaushansky et al. Chem and Biol 2008",460 nM
same,Kd,"protein PIK3R3-N, ref Kaushansky et al. Chem and Biol 2008",890 nM
same,Kd,"protein PIK3R3-NC, ref Kaushansky et al. Chem and Biol 2008",580 nM
"EEKEpYHAEGGKVd [ErbB1 pY869, N-terminally rhodamine-labeled 13-mer phosphopeptide]",Kd,"protein ABL2, ref Jones et al. 2006 / Kaushansky et al. Mol Biosys 2008 / Kaushansky et al. Chem and Biol 2008",2000 nM
same,Kd,"protein BLK, ref Jones et al. 2006 / Kaushansky et al. Mol Biosys 2008 / Kaushansky et al. Chem and Biol 2008",1710 nM
